Assay results published in paper PMC10673995, “Discovery of a novel cardiac-specific myosin modulator using artificial intelligence-based virtual screening” (Nature Communications, 2023).
“And” between values parts separate entries of the source, which are not always exact repeats. Identical values can stand only once.

What was measured:
[1] = test system: isolated cardiac muscle fibers; conditions: read-out: reported IC50 for force inhibition; cited from earlier work
[2] = biological target: bovine cardiac myofibrils (Bos taurus, UniProt Q9BE39); assay: mant-ATP chase single nucleotide turnover, cardiac myofibrils;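 note: bovine cardiac myofibrils at 1 mg/mL in PIPES buffer, 20 µM mant-ATP aged 1 min then chased with 20 mM ATP, fluorescence (ex 360, em 450 nm) read every second for 15 min at 25 °C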
From the text: We used systems of increasing complexity ranging from the isolated cardiac myosin motor domains (Fig. 3a) to synthetic thick filaments formed from purified full-length bovine cardiac myosin (Fig. 3b) and bovine cardiac myofibrils as substrates in the chase assays (Fig. 3c). In contrast to the isolated myosin motors, synthetic thick filaments contain two myosin head domains per molecule connected via their coiled-coil tail.
Synthetic thick filaments were freshly prepared by diluting full-length bovine cardiac myosin stock into assay buffer (composition in mmol L^−1: 15 PIPES pH 7, 5 MgCl2, 1 DTT) and incubation on ice for 2 h. Bovine myosin S1 and synthetic thick filament concentrations were adjusted to 0.4 μmol L^−1 with assay buffer and 40 μL aliquoted into individual wells of a black 384-well plate (Greiner). Mant-ATP (JenaBioscience) was added to each well to a final concentration of 0.4 μmol L^−1 using an automated injector unit in a ClarioStar Plate Reader (BMG LabTech) and the system was allowed to age for 1 min. The chase phase was started by adding a final concentration of 2 mmol L^−1 ATP using a second automated injector unit. Fluorescence intensity from each well was constantly measured for 15 min every 1 sec at 25 °C with the following settings: excitation at 360 nm with a 20 nm bandwidth and emission at 450 nm with a 20 nm bandwidth. For experiments with cardiac myofibrils the concentration was adjusted to 1 mg m L^−1, and the mant-ATP and ATP concentrations were increased to 20 μmol L^−1 and 20 mmol L^−1, respectively.

[3] = Cardiac myofibrils, individual replicates

bovine cardiac myofibrils, sequence (Q9BE39 whole entry): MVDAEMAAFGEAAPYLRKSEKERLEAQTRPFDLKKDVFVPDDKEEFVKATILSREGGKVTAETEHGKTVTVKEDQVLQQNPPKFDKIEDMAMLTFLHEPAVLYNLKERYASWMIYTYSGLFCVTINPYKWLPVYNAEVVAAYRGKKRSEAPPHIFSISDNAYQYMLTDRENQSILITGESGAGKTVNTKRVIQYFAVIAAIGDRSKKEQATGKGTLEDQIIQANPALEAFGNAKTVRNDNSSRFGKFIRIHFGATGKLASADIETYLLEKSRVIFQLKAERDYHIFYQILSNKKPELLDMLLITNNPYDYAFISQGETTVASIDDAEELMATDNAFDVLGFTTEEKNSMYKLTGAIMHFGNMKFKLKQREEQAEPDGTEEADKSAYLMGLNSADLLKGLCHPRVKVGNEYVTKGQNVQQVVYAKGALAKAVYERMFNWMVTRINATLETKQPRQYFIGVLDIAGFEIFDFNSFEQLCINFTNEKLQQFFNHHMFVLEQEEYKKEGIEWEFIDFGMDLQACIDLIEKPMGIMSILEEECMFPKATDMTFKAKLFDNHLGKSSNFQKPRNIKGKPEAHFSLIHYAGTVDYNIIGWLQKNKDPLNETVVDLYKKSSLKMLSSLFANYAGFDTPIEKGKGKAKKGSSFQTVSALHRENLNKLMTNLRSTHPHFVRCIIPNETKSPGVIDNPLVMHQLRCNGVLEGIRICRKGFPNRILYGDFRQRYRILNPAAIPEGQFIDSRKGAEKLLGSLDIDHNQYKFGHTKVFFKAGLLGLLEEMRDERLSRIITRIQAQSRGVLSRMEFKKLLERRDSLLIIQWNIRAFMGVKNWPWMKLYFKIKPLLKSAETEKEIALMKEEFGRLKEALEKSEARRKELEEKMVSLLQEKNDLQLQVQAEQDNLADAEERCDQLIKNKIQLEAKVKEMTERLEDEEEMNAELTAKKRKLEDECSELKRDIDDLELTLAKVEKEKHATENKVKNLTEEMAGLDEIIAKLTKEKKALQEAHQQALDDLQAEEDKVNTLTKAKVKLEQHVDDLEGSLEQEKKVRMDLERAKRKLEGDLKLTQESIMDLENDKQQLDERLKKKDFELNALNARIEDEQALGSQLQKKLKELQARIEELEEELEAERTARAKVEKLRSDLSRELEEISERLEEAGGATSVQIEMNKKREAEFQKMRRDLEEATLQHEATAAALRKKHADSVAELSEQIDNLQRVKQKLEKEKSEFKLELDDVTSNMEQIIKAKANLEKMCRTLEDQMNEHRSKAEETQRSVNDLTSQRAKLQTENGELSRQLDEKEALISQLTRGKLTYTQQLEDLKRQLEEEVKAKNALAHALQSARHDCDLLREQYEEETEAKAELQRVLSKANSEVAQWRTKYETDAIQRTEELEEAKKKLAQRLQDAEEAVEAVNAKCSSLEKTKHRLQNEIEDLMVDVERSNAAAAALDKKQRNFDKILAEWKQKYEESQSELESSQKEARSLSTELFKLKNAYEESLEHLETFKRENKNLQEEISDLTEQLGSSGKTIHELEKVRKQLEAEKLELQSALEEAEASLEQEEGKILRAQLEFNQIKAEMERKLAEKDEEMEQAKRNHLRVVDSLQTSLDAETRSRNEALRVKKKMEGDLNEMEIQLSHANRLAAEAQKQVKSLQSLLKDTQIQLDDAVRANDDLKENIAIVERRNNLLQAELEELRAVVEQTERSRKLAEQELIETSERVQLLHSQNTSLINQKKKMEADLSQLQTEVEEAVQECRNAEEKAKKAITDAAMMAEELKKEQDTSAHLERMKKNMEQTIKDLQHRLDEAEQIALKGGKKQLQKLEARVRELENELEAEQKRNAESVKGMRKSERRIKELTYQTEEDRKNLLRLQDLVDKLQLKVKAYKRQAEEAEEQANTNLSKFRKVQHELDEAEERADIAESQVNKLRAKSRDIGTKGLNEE
bovine cardiac myofibrils, sequence (P85100 whole entry partner): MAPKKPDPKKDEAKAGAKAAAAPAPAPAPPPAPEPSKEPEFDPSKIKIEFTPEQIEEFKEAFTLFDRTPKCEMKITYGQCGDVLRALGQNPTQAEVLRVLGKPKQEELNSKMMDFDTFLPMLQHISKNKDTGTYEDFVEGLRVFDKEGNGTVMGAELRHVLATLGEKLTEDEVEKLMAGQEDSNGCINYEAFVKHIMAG
bovine cardiac myofibrils, sequence (Q3SZE5 whole entry partner): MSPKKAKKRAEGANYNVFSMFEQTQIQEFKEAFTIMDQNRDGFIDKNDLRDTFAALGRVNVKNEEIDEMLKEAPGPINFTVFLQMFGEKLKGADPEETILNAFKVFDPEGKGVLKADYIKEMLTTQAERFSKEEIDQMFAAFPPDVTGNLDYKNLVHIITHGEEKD

effect on the rate of the fast phase [2]: no effect | kfast ([2]; 2 μmol L^−1 Mavacamten or 20 μmol L^−1 F10, control 0.0719 ± 0.0193): 0.0637 ± 0.0271 s⁻¹ | Representative Traces ([2]; t [s] = 6): 0.8107 | Representative Traces ([2]; t [s] = 7): 0.8334 | Representative Traces ([2]; t [s] = 8): 0.8024 | Representative Traces ([2]; t [s] = 9): 0.8319 | Representative Traces ([2]; t [s] = 10): 0.793 | Representative Traces ([2]; t [s] = 11): 0.7299 | Representative Traces ([2]; t [s] = 12): 0.7382 | Representative Traces ([2]; t [s] = 13): 0.7429 | Representative Traces ([2]; t [s] = 14): 0.7007 | Representative Traces ([2]; t [s] = 96): 0.4149 | Representative Traces ([2]; t [s] = 97): 0.3828 | Representative Traces ([2]; t [s] = 98): 0.3883 | Representative Traces ([2]; t [s] = 99): 0.382 | Representative Traces ([2]; t [s] = 100): 0.393 | Representative Traces ([2]; t [s] = 101): 0.411 | Representative Traces ([2]; t [s] = 102): 0.3936 | Representative Traces ([2]; t [s] = 103): 0.355 | Representative Traces ([2]; t [s] = 104): 0.403 | Representative Traces ([2]; t [s] = 105): 0.3774 | Representative Traces ([2]; t [s] = 106): 0.4119 | Representative Traces ([2]; t [s] = 107): 0.4038 | Representative Traces ([2]; t [s] = 108): 0.3884 | Representative Traces ([2]; t [s] = 109): 0.3828 | Representative Traces ([2]; t [s] = 110): 0.3991 | Representative Traces ([2]; t [s] = 111): 0.3974 | Representative Traces ([2]; t [s] = 112): 0.3704 | Representative Traces ([2]; t [s] = 113): 0.3729 | Representative Traces ([2]; t [s] = 114): 0.3757 | Representative Traces ([2]; t [s] = 115): 0.3708 | Representative Traces ([2]; t [s] = 116): 0.3829 | Representative Traces ([2]; t [s] = 117): 0.3692 | Representative Traces ([2]; t [s] = 118): 0.3929 | Representative Traces ([2]; t [s] = 119): 0.3896 | Representative Traces ([2]; t [s] = 120): 0.34 | Representative Traces ([2]; t [s] = 121): 0.3562 | Representative Traces ([2]; t [s] = 122): 0.3276 | Representative Traces ([2]; t [s] = 123): 0.3379 | Representative Traces ([2]; t [s] = 124): 0.3372 | Representative Traces ([2]; t [s] = 125): 0.3385 | Representative Traces ([2]; t [s] = 126): 0.3527 | Representative Traces ([2]; t [s] = 127): 0.3498 | Representative Traces ([2]; t [s] = 128): 0.3795 | Representative Traces ([2]; t [s] = 129): 0.3503 | Representative Traces ([2]; t [s] = 130): 0.3889 | Representative Traces ([2]; t [s] = 131): 0.3403 | Representative Traces ([2]; t [s] = 132): 0.3551 | Representative Traces ([2]; t [s] = 133): 0.3408 | Representative Traces ([2]; t [s] = 134): 0.3174 | Representative Traces ([2]; t [s] = 135): 0.3637 | Representative Traces ([2]; t [s] = 136): 0.3269 | Representative Traces ([2]; t [s] = 137): 0.3446 | Representative Traces ([2]; t [s] = 138): 0.322 | Representative Traces ([2]; t [s] = 140): 0.3437 | Representative Traces ([2]; t [s] = 141): 0.3145 | Representative Traces ([2]; t [s] = 142): 0.3341 | Representative Traces ([2]; t [s] = 143): 0.3342 | Representative Traces ([2]; t [s] = 144): 0.3241 | Representative Traces ([2]; t [s] = 145): 0.353 | Representative Traces ([2]; t [s] = 146): 0.3167 | Representative Traces ([2]; t [s] = 147): 0.3169 | Representative Traces ([2]; t [s] = 150): 0.3343 | Representative Traces ([2]; t [s] = 151): 0.3323 | Representative Traces ([2]; t [s] = 152): 0.3258 | Representative Traces ([2]; t [s] = 153): 0.3279 | Representative Traces ([2]; t [s] = 154): 0.3292 | Representative Traces ([2]; t [s] = 155): 0.3236 | Representative Traces ([2]; t [s] = 156): 0.3153 | Representative Traces ([2]; t [s] = 157): 0.312 | Representative Traces ([2]; t [s] = 158): 0.3484 | Representative Traces ([2]; t [s] = 159): 0.3282 | Representative Traces ([2]; t [s] = 160): 0.2877 | Representative Traces ([2]; t [s] = 161): 0.3298 | Representative Traces ([2]; t [s] = 162): 0.3159 | Representative Traces ([2]; t [s] = 164): 0.2984 | Representative Traces ([2]; t [s] = 165): 0.3474 | Representative Traces ([2]; t [s] = 166): 0.3344 | Representative Traces ([2]; t [s] = 167): 0.3033 | Representative Traces ([2]; t [s] = 168): 0.3319 | Representative Traces ([2]; t [s] = 169): 0.3401 | Representative Traces ([2]; t [s] = 170): 0.3298 | Representative Traces ([2]; t [s] = 171): 0.3174 | Representative Traces ([2]; t [s] = 172): 0.335 | Representative Traces ([2]; t [s] = 173): 0.2879 | Representative Traces ([2]; t [s] = 174): 0.2744 | Representative Traces ([2]; t [s] = 175): 0.3144 | Representative Traces ([2]; t [s] = 177): 0.3003 | Representative Traces ([2]; t [s] = 180): 0.3087 | Representative Traces ([2]; t [s] = 181): 0.2965 | Representative Traces ([2]; t [s] = 182): 0.2814 | Representative Traces ([2]; t [s] = 183): 0.3178 | Representative Traces ([2]; t [s] = 184): 0.3078 | Representative Traces ([2]; t [s] = 185): 0.2721 | Representative Traces ([2]; t [s] = 186): 0.3115 | Representative Traces ([2]; t [s] = 187): 0.2704 | Representative Traces ([2]; t [s] = 188): 0.2836 | Representative Traces ([2]; t [s] = 189): 0.2816 | Representative Traces ([2]; t [s] = 190): 0.2901 | Representative Traces ([2]; t [s] = 191): 0.3081 | Representative Traces ([2]; t [s] = 192): 0.2598 | Representative Traces ([2]; t [s] = 193): 0.2745
Compound: CC(C)n1c(=O)cc(N[C@@H](C)c2ccccc2)[nH]c1=O [Mavacamten]
IC50 [1]: ~1 µM | kfast [2, 3]: 0.1448 s⁻¹ and 0.0188 s⁻¹ and 0.01818 s⁻¹ and 0.1128 s⁻¹ and 0.02375 s⁻¹ | kslow [2, 3]: 0.005449 s⁻¹ and 0.0002437 s⁻¹ and 0.001429 s⁻¹ and 0.00295 s⁻¹ and 0.003851 s⁻¹ | slow phase [2, 3]: 76.35% and 29.71% and 40.4% and 38.11% and 48.47% | Bar graph ([2]; Figure 3c, individual replicates): 76.35 and 29.71 and 40.4 and 38.11 and 48.47
